Measurements as given in publication PMC9468151, “Identification of a binding site on soluble RANKL that can be targeted to inhibit soluble RANK-RANKL interactions and treat osteoporosis” (Nature Communications, 2022).
Where “and” joins values, the source holds several entries; their conditions need not be identical. Identical values can stand only once.

B1: GST tag recombinant rat sRANKL (GST-sRANKL) (ligand, UniProt Q9ESE2 160-318, looked up)
chain: KPEAQPFAHLTINAADIPSGSHKVSLSSWYHDRGWAKISNMTLSNGKLRVNQDGFYYLYANICFRHHETSGSVPADYLQLMVYVVKTSIKIPSSHNLMKGGSTKNWSGNSEFHFYSINVGGFFKLRAGEEISVQVSNPSLLDPDQDATYFGAFKVQDID
notes: also called soluble RANKL; source: E. coli BL21 (DE3), purified (glutathione sepharose, Superdex 200 Increase)
B2: label-free rat sRANKL (wild type) (ligand, UniProt Q9ESE2 160-318, looked up)
chain: B1 chain
notes: RANKL, rat, soluble form sRANKL; also called WT sRANKL; soluble RANKL; source: E. coli BL21 (DE3), purified (Ni-NTA, released by Ulp1, HiLoad Superdex 200); not shown: His6, N-terminal, cleaved; SUMO, N-terminal, cleaved

Columns and labels:
[1] = system: sRANKL induced osteoclast differentiation; experiment: In vitro anti-osteoclastogenesis activity determination (TRAP staining); assay type: cell-based, mouse; parameters: key to inhibition of osteoclastogenesis, dose-response (fig. S2a): % inhibition = 100 − (treated−unstimulated)/(untreated−unstimulated)×100; settings: for inhibition of osteoclastogenesis, dose-response (fig. S2a): three replicate columns; for IC50: BMMs, M-CSF + 100 ng/mL sRANKL, 5 days, TRAP staining, read-out: OC IC50 (anti-osteoclastogenesis activity)
In short: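 Mouse bone-marrow macrophages in 10 ng/mL M-CSF were stimulated with 100 ng/mL sRANKL plus compound at 9 concentrations, refreshed every 2 days, triplicate wells. After 5 days TRAP-stained osteoclasts were counted; inhibition normalised to untreated and unstimulated controls, IC50 by nonlinear regression.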

[2] = target: T1, sRANKL (Rattus norvegicus, UniProt Q9ESE2, D175N); experiment: Surface plasmon resonance (SPR) assay; assay type: binding; settings: immobilized sRANKL, 25 °C
T1 construct: (1) sRANKL (rat 159-318 aa); His6-sumo (N, cleaved yes); made in house; host or cells: Escherichia coli BL21 (DE3)
T1 sequence (Q9ESE2 159-318 D175N): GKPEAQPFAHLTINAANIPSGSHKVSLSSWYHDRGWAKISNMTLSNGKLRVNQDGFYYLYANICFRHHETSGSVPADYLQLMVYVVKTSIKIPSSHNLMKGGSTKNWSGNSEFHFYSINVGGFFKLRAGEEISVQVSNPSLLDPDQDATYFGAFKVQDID
Procedure: A ProteOn XPR36TM SPR instrument (BioRad Hercules, CA) was used for carrying out SPR assays. sRANKL protein in PBS buffer, pH 7.4, was diluted to 20 nM in 10 mM sodium acetate buffer, pH 5.5 and immobilized in parallelflow channels of a the EDAC/Sulfo-NHS activated surface of a GLH biosensor chip (Bio-Rad) with an amine coupling kit (Bio-Rad). The surface was blocked with 1 M ethanolamine. The final immobilization level for sRANKL was approximately 14,000 RU. A blank immobilization channel in the same GLH biosensor chip was also activated with EDAC/Sulfo-NHS and blocked with 1 M ethanolamine to use as a reference.
Biosensor binding experiments were conducted in filtered and degassed running buffer (PBS containing 0.005% Tween-20, pH 7.4) at 25 °C. Compounds was dissolved in 100% DMSO in appropriate different series concentrations of stock solutions. Before detecting, compounds were diluted in six or five concentrations with running buffer and ensured that the content of DMSO contained in each detected concentration was consistent. Compounds in different concentrations were injected simultaneously at a flow rate at […] for 180 s and 120 s for the association phase, followed by 180 s for the disassociation. Following the compound injection, the chip surface was regenerated with 40 s pulses of 0.85% H3PO4 and running buffer.
ProtedOn Manager 2.0. was used for data analysis. Each set of sensorgrams was globally analyzed using the 1:1 Langmuir binding model to obtain the kinetic rate constants (Kon and Koff). Global kinetic rate constants (ka and kd) were derived for each reaction, and the equilibrium dissociation constant, KD, was calculated using the equation KD = kd/ka.

[3] = system: RAW264.7 cells; experiment: In vitro cytotoxicity assay (MTT); assay type: cell-based, mouse; settings: RAW264.7, MTT
Procedure: MTT assay was used to determine cell viability. RAW264.7 cells in the logarithmic growth phase were cultured in 96-well plates with 6 × 10^3 cells in each well and incubated for 24 h. The surviving cells were then determined by MTT method. […] Cell growth inhibition ratio was calculated as follows: Cellgrowthinhibitionratio%=ODvehicle−ODtreaed/ODvehicle×100%
Cell cytotoxicity CC50 value were conducted by using Nonlinear regression (curve fit) analytic procedure in GraphPad Prism 8.

[4] = target: T2, recombinant RANK (mouse extracellular RANK fragment, residues 26-210) (mouse, UniProt O35305 26-210); experiment: pull-down; 120 ug GST-sRANKL on the resin in PBS with 1% BSA, room temperature; compounds (50 uM) or 0.8% DMSO control for 30 min, then 25 ug RANK for 20 min; SDS-PAGE, Coomassie blue; settings: both partners purified
T2 construct: RANK (TNFRSF11A), mouse, extracellular fragment, residues 26-210, cloned into pET28a between Nde I and Xho I; In the functional rows the RANK that was present is the endogenous receptor on mouse bone marrow cells; also called soluble RANK
T2 sequence (looked up): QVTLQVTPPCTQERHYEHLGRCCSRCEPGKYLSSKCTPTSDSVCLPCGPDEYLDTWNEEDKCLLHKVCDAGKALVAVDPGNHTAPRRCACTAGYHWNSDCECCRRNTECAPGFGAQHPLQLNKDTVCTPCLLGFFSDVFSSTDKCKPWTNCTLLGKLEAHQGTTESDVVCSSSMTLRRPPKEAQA

[5] = target: the molecule itself; experiment: cross-linking; cross-link assay of sRANKL with S3-15; methods not shown

Row | Molecule | inhibition of osteoclastogenesis, dose-response (fig. S2a) ([1]; conc. 0.0023464 μM) | inhibition of osteoclastogenesis, dose-response (fig. S2a) ([1]; conc. 0.00774313 μM) | inhibition of osteoclastogenesis, dose-response (fig. S2a) ([1]; conc. 0.0255523 μM) | inhibition of osteoclastogenesis, dose-response (fig. S2a) ([1]; conc. 0.0843226 μM) | inhibition of osteoclastogenesis, dose-response (fig. S2a) ([1]; conc. 0.278265 μM) | inhibition of osteoclastogenesis, dose-response (fig. S2a) ([1]; conc. 0.918274 μM) | inhibition of osteoclastogenesis, dose-response (fig. S2a) ([1]; conc. 3.0303 μM) | inhibition of osteoclastogenesis, dose-response (fig. S2a) ([1]; conc. 10 μM) | inhibition of osteoclastogenesis, dose-response (fig. S2a) ([1]; conc. 33 μM) | Kd [2] [µM] | CC50 [3] [µM] | IC50 [1] | binding result [4] | stoichiometry N [5]
1 | CC(=O)C(=NNc1ccccc1C(=O)O)C(=O)Nc1nccs1 [S3-09] | -0.7659 (2×) and 2.516 | 0.2188 and -0.1094 and 1.86 | 6.455 and 3.501 and 2.845 | 10.3939 and 2.845 and 7.44 | 45.186 and 26.8053 and 32.3851 | 57.9869 (2×) and 48.7965 | 69.1466 and 68.8184 and 61.9256 | 80.6346 and 77.0241 and 79.6499 | 100 | 33.7 | > 100 |  |  | 
2 | CCOC(=O)c1sc(NC(=O)C(=NNc2ccc(C(=O)O)cc2)C(C)=O)nc1C [S3-02] | 0.3058 and -2.446 and -0.3058 | 12.2324 and 9.48 and 14.6789 | 19.5719 and 20.7951 and 20.4893 | 19.5719 and 21.7125 and 20.1835 | 22.9358 and 29.3578 (2×) | 32.1101 and 33.9449 and 35.474 | 59.0214 and 60.5505 and 61.1621 | 81.6514 and 80.7339 and 87.7676 | 100 | 38 | 41.9 | 1.24 µM and > 1 µM |  | 
3 | CCOC(=O)c1sc(NC(=O)C(=NNc2cccc(C(=O)O)c2)C(C)=O)nc1C [S3-03] | 4.313 and 4.012 and -1.404 | 4.012 and 1.304 and -0.5015 | 11.5346 and 24.4734 and 19.659 | 33.8014 and 30.1906 and 37.1113 | 47.6429 and 50.0502 and 47.342 | 51.8556 and 56.9709 and 59.3781 | 77.4323 and 79.5386 and 69.007 | 99.0973 and 98.7964 (2×) | 100 | 33.7 | 33.9 | 0.36 µM |  | 
4 | CC(=O)C(=NNc1ccccc1C(=O)O)C(=O)Nc1nc(C)c(C(=O)O)s1 [S3-01] | 5.532 (2×) and 2.66 | 13.1915 and 15.7447 and 16.7021 | 9.043 and 12.234 and 13.5106 | 12.234 and 16.7021 and 15.1064 | 42.234 and 40.3192 and 42.5532 | 61.7021 and 57.234 and 62.3404 | 74.1489 and 77.0213 and 79.8936 | 99.3617 (2×) and 99.0426 | 100 | 211 | 62.3 |  |  | 
5 | B1 |  |  |  |  |  |  |  |  |  |  |  |  | binds | 
6 | B2 |  |  |  |  |  |  |  |  |  |  |  |  |  | 3
